One assay deals with kochia. The assay is described as follows: Test A pre-/postemergence herbicide test. In kind it is in vivo, Kochia scoparia. In a few lines: (§1)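 Formulated compound (non-phytotoxic solvent, surfactant) sprayed pre- onto soil of seeded loam/sand pots or post- onto seedlings at 1–2 leaves; ~10 d greenhouse; 0–100 visual control rating versus untreated.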
Another assay concerns galium. The assay is described as follows: Test A postemergence herbicide test. In kind it is in vivo, Galium aparine. In a few lines:
(§2)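 Ratings compare treated with untreated plants roughly 10 days after a postemergence application made at the one- to two-leaf stage. Scoring uses 0–100, where 0 means no effect and 100 complete control.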

Another assay concerns sedge, umbrella. The assay is described as follows: Test C flooded paddy test. The settings on record: Flood. In kind it is in vivo, Cyperus difformis. In a few lines:
(§3)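 2-leaf stage; flood 3 cm over soil; compound into paddy water; depth held; greenhouse 13–15 d; visual % control vs untreated (0 = none, 100 = complete); "-" = not tested.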

A further assay concerns blackgrass. As to the kind of experiment: Test A postemergence herbicide test. In kind it is in vivo, Alopecurus myosuroides. Put shortly: as §2
The next assay has as its system barnyardgrass. The assay is described as follows: Test C flooded paddy test. The format is in vivo, Echinochloa crus-galli. As to conditions: Flood. In a few lines: as §3
For another assay, the system named is ducksalad. As to the kind of experiment: Test C flooded paddy test. The settings on record: Flood. In kind it is in vivo, Heteranthera limosa. Put shortly:
as §3

A further assay deals with crabgrass, large. As to the kind of experiment: Test A pre-/postemergence herbicide test. The format is in vivo, Digitaria sanguinalis. The settings on record: for pest or weed control at 500 g/ha: 500 g ai/ha. Put shortly: as §1
The next assay concerns morningglory. The assay is described as follows: Test A pre-/postemergence herbicide test. As to conditions: for pest or weed control at 500 g/ha: 500 g ai/ha. In kind it is in vivo, Ipomoea spp. Put shortly: as §1
[1] abbreviates: 125 g ai/ha, visual rating, 0 to 100 scale, 0 no effect, 100 complete control, approximately 10 days, preemergence.
The mark [2] stands for this setting: 125 g ai/ha, 0 to 100 scale, 0 no effect, 100 complete control.
[3] abbreviates: 62 g ai/ha, scale of 0 to 100 where 0 is no effect and 100 is complete control, 13 to 15 days.
[4] abbreviates: 125 g ai/ha, scale of 0 to 100 where 0 is no effect and 100 is complete control, 13 to 15 days.
Where [5] appears, read: 500 g ai/ha, 0 to 100 scale (0 no effect, 100 complete control).
Setting [6] is: 125 g ai/ha, 0 to 100 scale, 0 is no effect, 100 is complete control.
The mark [7] stands for this setting: 250 g ai/ha, scale of 0 to 100 where 0 is no effect and 100 is complete control, 13 to 15 days.
Setting [8] is: Preemergence, 125 g ai/ha, visual rating on 0 to 100 scale (0 no effect, 100 complete control).
The mark [9] stands for this setting: 31 g ai/ha, scale of 0 to 100 where 0 is no effect and 100 is complete control, 13 to 15 days.
Setting [10] is: Postemergence, 125 g ai/ha, visual rating on 0 to 100 scale (0 no effect, 100 complete control), approx. 10 days.
Setting [11] is: Postemergence, 500 g ai/ha, 0 to 100 scale (0 no effect, 100 complete control).
The mark [12] stands for this setting: Preemergence, 125 g ai/ha, 0 to 100 scale where 0 is no effect and 100 is complete control.
The mark [13] stands for this setting: Preemergence, 500 g ai/ha, visual rating on 0 to 100 scale (0 no effect, 100 complete control).
The mark [14] stands for this setting: 125 g ai/ha, visual rating on 0 to 100 scale (0 no effect, 100 complete control), approx. 10 days.

Read-outs that look alike come from different tables or passages of the source.

On to `O=C1NCC(c2ccc(F)cc2)C1C(=O)Nc1ccc(F)c(F)c1F` (racemic) [Compound 120], for which the “Plant response rating, Kochia” value came out at 60 in the assay on kochia (setting [1]); 60 in the assay with kochia (Postemergence, 125 g ai/ha, 0 to 100 scale, 0 no effect, 100 complete control); 80 with kochia (preemergence, 500 g ai/ha, 0 to 100 scale). For the same compound, in the assay with kochia (Postemergence, 500 g ai/ha), the “Kochia plant response rating (0 to 100 scale, 0 is no effect, 100 is complete control)” value is listed as 70. The “Plant response rating, Galium” value with galium (setting [2]) is 50. In the assay on galium (500 g ai/ha), the “Galium plant response rating (0 to 100 scale, 0 is no effect, 100 is complete control)” value stood at 60. Moreover, the “Plant response rating, Sedge, Umbrella” value is recorded as 0 with sedge, umbrella (setting [3]); 0 in the assay on sedge, umbrella (setting [4]); 0 in the assay on sedge, umbrella (250 g ai/ha, scale 0 to 100); 0 in the assay on sedge, umbrella (500 g ai/ha, scale 0 to 100). The entries for the “Plant response rating, Blackgrass” value with blackgrass (setting [2]) and with blackgrass (setting [5]) were 40 and 50, respectively. The “Plant response rating, Barnyardgrass” value turned out to be 40 in the assay with barnyardgrass (setting [3]); 50 in the assay with barnyardgrass (setting [4]); 60 in the assay with barnyardgrass (250 g ai/ha, scale 0 to 100); 75 with barnyardgrass (500 g ai/ha, scale 0 to 100). The “Plant response rating, Ducksalad” value with ducksalad (setting [3]) is listed as 100; in the assay with ducksalad (setting [4]) it was 100; in the assay on ducksalad (250 g ai/ha, scale 0 to 100), 100; in the assay on ducksalad (500 g ai/ha, scale 0 to 100), 100.
On to `O=C1NCC(c2cccc(C(F)F)c2)C1C(=O)Nc1ccccc1F` (racemic) [Compound 210], for which the “Plant response rating, Kochia” value in the assay with kochia (setting [1]) was determined as 0; with kochia (Postemergence, 125 g ai/ha, 0 to 100 scale, 0 is no effect, 100 is complete control), 20; in the assay with kochia (preemergence, 500 g ai/ha, 0 to 100 scale, 0 is no effect and 100 is complete control), 30. Also, the “Kochia plant response rating (0 to 100 scale, 0 is no effect, 100 is complete control)” value with kochia (Postemergence, 500 g ai/ha) is 60. Also, the “Plant response rating, Galium” value with galium (setting [6]) was found to be 30. Further, the “Galium plant response rating (0 to 100 scale, 0 is no effect, 100 is complete control)” value with galium (500 g ai/ha) is recorded as 60. For the same compound, the “Plant response rating, Sedge, Umbrella” value was 0 with sedge, umbrella (setting [4]); 0 with sedge, umbrella (setting [7]); 0 with sedge, umbrella (500 g ai/ha, scale 0 to 100); 0 in the assay with sedge, umbrella (1000 g ai/ha, scale 0 to 100). For the same compound, in the assay with blackgrass (setting [6]), the “Plant response rating, Blackgrass” value is 30. Besides, in the assay on blackgrass (500 g ai/ha), the “Blackgrass plant response rating (0 to 100 scale, 0 is no effect, 100 is complete control)” value was 60. The “Plant response rating, Barnyardgrass” value in the assay on barnyardgrass (setting [4]) turned out to be 0; with barnyardgrass (setting [7]), 45; with barnyardgrass (500 g ai/ha, scale 0 to 100), 70; in the assay on barnyardgrass (1000 g ai/ha, scale 0 to 100) it was 75. Further, the “Plant response rating, Ducksalad” value with ducksalad (setting [4]) is 0; in the assay with ducksalad (setting [7]) it was 80; in the assay with ducksalad (500 g ai/ha, scale 0 to 100), 100; in the assay with ducksalad (1000 g ai/ha, scale 0 to 100), 100.
Take `O=C1NCC(c2ccccc2)C1(Br)C(=O)Nc1ccccc1F` (stereo not drawn) [Compound 93, 3-bromo-N-(2-fluorophenyl)-2-oxo-4-phenyl-3-pyrrolidinecarboxamide]: the pest or weed control at 125 g/ha in the assay with crabgrass, large (Digitaria sanguinalis, post-emergence, 240 h, Postemergence, 125 g ai/ha, 0 to 100 scale, 0 no effect, 100 complete control, read-out: Plant response rating, Crabgrass, Large) was found to be 50%; with morningglory (Ipomoea, post-emergence, 240 h, Postemergence, 125 g ai/ha, 0 to 100 scale, 0 no effect, 100 complete control, read-out: Plant response rating, Morningglory), 0%. Also, the pest or weed control at 500 g/ha in the assay on crabgrass, large (Digitaria sanguinalis, post-emergence, 240 h, Postemergence, 0 to 100 scale (0 no effect, 100 complete control), read-out: Plant response rating, Crabgrass, Large) amounted to 80%; with crabgrass, large (Digitaria sanguinalis, pre-emergence, 240 h, preemergence, 0 to 100 scale, read-out: Plant response rating, Crabgrass, Large) it was 90%; with morningglory (Ipomoea, post-emergence, 240 h, Postemergence, 0 to 100 scale (0 no effect, 100 complete control), read-out: Plant response rating, Morningglory), 0%; with morningglory (Ipomoea, pre-emergence, 240 h, preemergence, 0 to 100 scale, read-out: Plant response rating, Morningglory) it was 0%. The “Crabgrass, Large plant response rating” value with crabgrass, large (setting [8]) came out at 90. Further, in the assay on morningglory (setting [8]), the “Morningglory plant response rating” value is listed as 0. The “Plant response rating, Sedge, Umbrella” value came to 0 in the assay on sedge, umbrella (setting [9]); 0 in the assay with sedge, umbrella (setting [3]); 0 with sedge, umbrella (setting [4]); 100 with sedge, umbrella (250 g ai/ha, scale 0 to 100). The “Plant response rating, Barnyardgrass” value in the assay with barnyardgrass (setting [9]) was found to be 0; in the assay on barnyardgrass (setting [3]) it was 0; in the assay with barnyardgrass (setting [4]), 0; in the assay on barnyardgrass (250 g ai/ha, scale 0 to 100) it was 40. Further, the “Plant response rating, Ducksalad” value with ducksalad (setting [9]) amounted to 0; with ducksalad (setting [3]) it was 0; with ducksalad (setting [4]) it was 0; in the assay with ducksalad (250 g ai/ha, scale 0 to 100), 85.
Turning to `CN1CC(c2ccc(F)c(F)c2)C(C(=O)Nc2cccc(F)c2F)C1=O` (stereo not drawn) [Compound 303], the “Plant response rating, Kochia” value was determined as 50 with kochia (setting [10]), 80 in the assay on kochia (setting [11]) and 70 in the assay on kochia (setting [12]). Also, the “Kochia plant response rating” value with kochia (setting [13]) was 80. The “Plant response rating, Galium” value was found to be 60 with galium (setting [14]) and 70 with galium (setting [5]). For the same compound, the “Plant response rating, Sedge, Umbrella” value with sedge, umbrella (setting [9]) is 0; in the assay with sedge, umbrella (setting [3]), 0; in the assay on sedge, umbrella (setting [4]), 0; in the assay with sedge, umbrella (setting [7]) it was 0. For the same compound, the “Plant response rating, Blackgrass” value is reported as 60 in the assay on blackgrass (setting [14]) and 70 with blackgrass (setting [5]). Besides, the “Plant response rating, Barnyardgrass” value in the assay on barnyardgrass (setting [9]) was 0; with barnyardgrass (setting [3]) it was 20; with barnyardgrass (setting [4]), 60; in the assay on barnyardgrass (setting [7]), 70. For the same compound, the “Plant response rating, Ducksalad” value in the assay with ducksalad (setting [9]) was determined as 50; with ducksalad (setting [3]), 60; in the assay with ducksalad (setting [4]) it was 70; in the assay with ducksalad (setting [7]), 100.
In the case of `CC(C)c1cccc(C2CNC(=O)C2C(=O)Nc2ccccc2F)c1` (stereo not drawn) [Compound 318], the “Plant response rating, Kochia” value in the assay on kochia (setting [10]) was determined as 20; with kochia (setting [11]), 30; in the assay on kochia (setting [12]), 20. Moreover, the “Kochia plant response rating” value in the assay with kochia (setting [13]) worked out at 70. For the same compound, the “Plant response rating, Galium” value in the assay on galium (setting [14]) was found to be 30; in the assay on galium (setting [5]), 40. The “Plant response rating, Sedge, Umbrella” value was 0 in the assay on sedge, umbrella (setting [9]); 0 in the assay on sedge, umbrella (setting [3]); 0 in the assay on sedge, umbrella (setting [4]); 0 in the assay on sedge, umbrella (setting [7]). Moreover, the “Plant response rating, Blackgrass” value in the assay on blackgrass (setting [14]) was found to be 30; in the assay with blackgrass (setting [5]), 40. In addition, the “Plant response rating, Barnyardgrass” value is on record as 20 in the assay with barnyardgrass (setting [9]), 30 with barnyardgrass (setting [3]), 60 with barnyardgrass (setting [4]) and 70 with barnyardgrass (setting [7]). The “Plant response rating, Ducksalad” value was found to be 50 with ducksalad (setting [9]), 60 in the assay with ducksalad (setting [3]), 100 with ducksalad (setting [4]) and 100 in the assay on ducksalad (setting [7]).
As to `O=C1NCC(c2cccc(OC(F)F)c2)C1C(=O)Nc1ccccc1F` (stereo not drawn) [Compound 323], the entries for the “Plant response rating, Kochia” value in the assay with kochia (setting [10]), in the assay with kochia (setting [11]) and in the assay with kochia (setting [12]) were 40, 90 and 50, respectively. For the same compound, the “Kochia plant response rating” value with kochia (setting [13]) stood at 80. The “Plant response rating, Galium” value in the assay on galium (setting [14]) stood at 40; in the assay with galium (setting [5]), 60. Also, the “Plant response rating, Sedge, Umbrella” value in the assay with sedge, umbrella (setting [9]) is listed as 0; in the assay with sedge, umbrella (setting [3]) it was 0; in the assay on sedge, umbrella (setting [4]), 0; with sedge, umbrella (setting [7]) it was 0. The figures for the “Plant response rating, Blackgrass” value in the assay on blackgrass (setting [14]) and with blackgrass (setting [5]) were 40 and 60, respectively. Besides, the “Plant response rating, Barnyardgrass” value with barnyardgrass (setting [9]) is given as 25; in the assay on barnyardgrass (setting [3]) it was 45; in the assay with barnyardgrass (setting [4]), 50; with barnyardgrass (setting [7]), 65. For the same compound, the “Plant response rating, Ducksalad” value with ducksalad (setting [9]) worked out at 50; in the assay with ducksalad (setting [3]), 75; with ducksalad (setting [4]), 90; in the assay with ducksalad (setting [7]), 100.

These data come from US10294202B2, “Pyrrolidinones as herbicides” (FMC Corporation, priority 2013, dated 2019).
